HELM strings list units from the 5' end as sugar, base in round brackets, then linkage (d deoxyribose, r ribose, m 2'-O-methyl, p phosphodiester). Strings are as the collection lists them, not checked against the first reports. ss, as = sense and antisense strand; [hna] = hexitol nucleic acid; [fl2r] = 2'-fluoro
Also: test system not given here.

The conditions of the data set: siRNA.
“RNA1{[fl2r](G)p.r(G)p.[fl2r](C)p.r(U)p.[fl2r](U)p.r(A)p.[fl2r](G)p.r(U)p.[fl2r](C)p.r(A)p.[fl2r](C)p.r(U)p.[fl2r](C)p.r(C)p.[fl2r](U)p.r(C)p.[fl2r](U)p.r(U)p.[fl2r](C)p.r(T)p.r(T)}|RNA2{r(G)p.r(A)p.r(A)p.r(G)p.r(A)p.r(G)p.r(G)p.r(A)p.r(G)p.r(U)p.r(G)p.r(A)p.r(C)p.r(U)p.r(A)p.r(A)p.r(G)p.r(C)p.r(C)p.r(T)p.r(T)}$$$RNA1{StrandType:ss}|RNA2{StrandType:as}$” came in with a target mRNA knockdown of 23%.

“RNA1{[fl2r](G)p.r(U)p.[fl2r](U)p.r(C)p.[fl2r](A)p.r(C)p.[fl2r](G)p.r(U)p.[fl2r](C)p.r(C)p.[fl2r](U)p.r(A)p.[fl2r](C)p.r(C)p.[fl2r](C)p.r(C)p.[fl2r](U)p.r(U)p.[fl2r](U)p.r(T)p.r(T)}|RNA2{r(A)p.r(A)p.r(A)p.r(G)p.r(G)p.r(G)p.r(G)p.r(U)p.r(A)p.r(G)p.r(G)p.r(A)p.[fl2r](C)p.r(G)p.r(U)p.r(G)p.r(A)p.r(A)p.[fl2r](C)p.r(T)p.r(T)}$$$RNA1{StrandType:ss}|RNA2{StrandType:as}$”: the target mRNA knockdown turned out to be 23%.

Substance “RNA1{[fl2r](U)p.r(A)p.[fl2r](A)p.r(C)p.[fl2r](C)p.r(C)p.[fl2r](C)p.r(A)p.[fl2r](A)p.r(G)p.[fl2r](A)p.r(A)p.[fl2r](C)p.r(G)p.[fl2r](G)p.r(G)p.[fl2r](C)p.r(U)p.[fl2r](U)p.r(T)p.r(T)}|RNA2{[fl2r](A)p.[fl2r](A)p.r(G)p.r(C)p.r(C)p.r(C)p.r(G)p.r(U)p.r(U)p.r(C)p.r(U)p.r(U)p.r(G)p.r(G)p.r(G)p.r(G)p.r(U)p.r(U)p.[fl2r](A)p.r(T)p.r(T)}$$$RNA1{StrandType:ss}|RNA2{StrandType:as}$” showed a target mRNA knockdown of 47%.

Take “RNA1{[fl2r](U)p.r(A)p.r(A)p.r(C)p.r(C)p.r(C)p.[fl2r](C)p.r(A)p.r(A)p.r(G)p.r(A)p.r(A)p.[fl2r](C)p.r(G)p.r(G)p.r(G)p.r(C)p.r(U)p.r(U)p.r(T)p.r(T)}|RNA2{r(A)p.r(A)p.r(G)p.r(C)p.r(C)p.r(C)p.[fl2r](G)p.r(U)p.r(U)p.r(C)p.r(U)p.[fl2r](U)p.r(G)p.r(G)p.r(G)p.r(G)p.r(U)p.[fl2r](U)p.r(A)p.r(T)p.r(T)}$$$RNA1{StrandType:ss}|RNA2{StrandType:as}$”: the target mRNA knockdown came out at 72%.

With “RNA1{[fl2r](U)p.r(A)p.r(A)p.r(C)p.r(C)p.r(C)p.r(C)p.r(A)p.r(A)p.r(G)p.r(A)p.r(A)p.r(C)p.r(G)p.r(G)p.r(G)p.r(C)p.r(U)p.r(U)p.r(T)p.r(T)}|RNA2{r(A)p.r(A)p.r(G)p.r(C)p.r(C)p.r(C)p.r(G)p.r(U)p.r(U)p.r(C)p.r(U)p.r(U)p.r(G)p.r(G)p.r(G)p.r(G)p.r(U)p.[fl2r](U)p.r(A)p.r(T)p.r(T)}$$$RNA1{StrandType:ss}|RNA2{StrandType:as}$”, the target mRNA knockdown was determined as 73%.

Regarding “RNA1{[fl2r](U)p.r(C)p.[fl2r](C)p.r(A)p.[fl2r](A)p.r(G)p.[fl2r](C)p.r(U)p.[fl2r](U)p.r(C)p.[fl2r](C)p.r(U)p.[fl2r](C)p.r(G)p.[fl2r](U)p.r(U)p.[fl2r](G)p.r(G)p.[fl2r](U)p.r(T)p.r(T)}|RNA2{r(A)p.r(C)p.r(C)p.r(A)p.r(A)p.r(C)p.r(G)p.r(A)p.r(G)p.r(G)p.r(A)p.r(A)p.r(G)p.r(C)p.[fl2r](U)p.[fl2r](U)p.r(G)p.r(G)p.r(A)p.r(T)p.r(T)}$$$RNA1{StrandType:ss}|RNA2{StrandType:as}$”, the target mRNA knockdown came to 51%.

“RNA1{[fl2r](U)p.r(C)p.[fl2r](C)p.r(G)p.[fl2r](G)p.r(C)p.[fl2r](U)p.r(A)p.[fl2r](A)p.r(C)p.[fl2r](U)p.r(C)p.[fl2r](U)p.r(G)p.[fl2r](A)p.r(G)p.[fl2r](G)p.r(A)p.[fl2r](C)p.r(T)p.r(T)}|RNA2{r(G)p.r(U)p.r(C)p.r(C)p.r(U)p.r(C)p.r(A)p.r(G)p.r(A)p.r(G)p.r(U)p.r(U)p.r(A)p.r(G)p.r(C)p.r(C)p.r(G)p.r(G)p.r(A)p.r(T)p.r(T)}$$$RNA1{StrandType:ss}|RNA2{StrandType:as}$” displayed a target mRNA knockdown of 41%.

In turn, “RNA1{[fl2r](U)p.r(C)p.[fl2r](C)p.r(U)p.[fl2r](C)p.r(G)p.[fl2r](U)p.r(C)p.[fl2r](G)p.r(U)p.[fl2r](C)p.r(U)p.[fl2r](G)p.r(U)p.[fl2r](U)p.r(C)p.[fl2r](U)p.r(A)p.[fl2r](A)p.r(T)p.r(T)}|RNA2{r(U)p.r(U)p.r(A)p.r(G)p.r(A)p.r(A)p.[fl2r](C)p.r(A)p.r(G)p.r(A)p.[fl2r](C)p.r(G)p.r(A)p.[fl2r](C)p.r(G)p.r(A)p.r(G)p.r(G)p.r(A)p.r(T)p.r(T)}$$$RNA1{StrandType:ss}|RNA2{StrandType:as}$” yielded a target mRNA knockdown of 49%.

In turn, “RNA1{[fl2r](U)p.r(U)p.[fl2r](A)p.r(C)p.[fl2r](C)p.r(C)p.[fl2r](C)p.r(G)p.[fl2r](A)p.r(U)p.[fl2r](U)p.r(C)p.[fl2r](A)p.r(G)p.[fl2r](C)p.r(C)p.[fl2r](U)p.r(C)p.[fl2r](U)p.r(T)p.r(T)}|RNA2{r(A)p.r(G)p.r(A)p.r(G)p.r(G)p.r(C)p.r(U)p.r(G)p.r(A)p.r(A)p.r(U)p.r(C)p.r(G)p.r(G)p.r(G)p.r(G)p.r(U)p.r(A)p.r(A)p.r(T)p.r(T)}$$$RNA1{StrandType:ss}|RNA2{StrandType:as}$” returned a target mRNA knockdown of 67%.

For “RNA1{[fl2r](U)p.r(U)p.[fl2r](C)p.r(U)p.[fl2r](A)p.r(A)p.[fl2r](C)p.r(C)p.[fl2r](G)p.r(G)p.[fl2r](G)p.r(C)p.[fl2r](A)p.r(G)p.[fl2r](C)p.r(U)p.[fl2r](U)p.r(C)p.[fl2r](U)p.r(T)p.r(T)}|RNA2{r(A)p.r(G)p.r(A)p.r(A)p.r(G)p.r(C)p.r(U)p.r(G)p.r(C)p.r(C)p.r(C)p.r(G)p.r(G)p.r(U)p.r(U)p.r(A)p.r(G)p.r(A)p.r(A)p.r(T)p.r(T)}$$$RNA1{StrandType:ss}|RNA2{StrandType:as}$”, the target mRNA knockdown came out at 61%.

Substance “RNA1{[hna](G)p.[hna](A)p.[hna](C)p.r(G)p.r(U)p.r(A)p.r(A)p.r(A)p.r(C)p.r(G)p.r(G)p.r(C)p.r(C)p.r(A)p.r(C)p.r(A)p.r(A)p.[hna](G)p.[hna](U)p.[hna](U)p.d(T)}|RNA2{[fl2r](A)p.m(C)p.[fl2r](U)p.m(U)p.[fl2r](G)p.m(U)p.[fl2r](G)p.m(G)p.[fl2r](C)p.m(C)p.[fl2r](G)p.m(U)p.[fl2r](U)p.m(U)p.[fl2r](A)p.m(C)p.[fl2r](G)p.m(U)p.[fl2r](C)p.m(G)p.[fl2r](C)}$$$RNA1{StrandType:ss}|RNA2{StrandType:as}$” came in with a target mRNA knockdown of 81.8%.

The substance “RNA1{[hna](G)p.[hna](A)p.[hna](C)p.r(G)p.r(U)p.r(A)p.r(A)p.r(A)p.r(C)p.r(G)p.r(G)p.r(C)p.r(C)p.r(A)p.r(C)p.r(A)p.r(A)p.[hna](G)p.[hna](U)p.[hna](U)p.d(T)}|RNA2{r(A)p.[hna](C)p.r(U)p.r(U)p.r(G)p.r(U)p.r(G)p.r(G)p.[hna](C)p.r(C)p.r(G)p.r(U)p.r(U)p.r(U)p.r(A)p.r(C)p.r(G)p.[hna](U)p.[hna](C)p.[hna](G)p.d(T)}$$$RNA1{StrandType:ss}|RNA2{StrandType:as}$” registered a target mRNA knockdown of 35.8%.
